Measured values published in the NIST ThermoML archive (doi:10.1021/je900468u).
Numbers after ± are expanded uncertainties.

Key:
[1] = xn = mol fraction of the nth substance listed; conditions: 101 kPa, Liquid; for speed of sound: Pulse-echo method
[2] = refractive index (Na D-line) (dimensionless); xn = mol fraction of the nth substance listed; conditions: 101 kPa, Liquid, Standard Abbe refractometry

C1CCCCCCC1 [cyclooctane] + CCc1ccccc1
298.15 K
Conditions	mass density, [1] [kg/m3]	refractive index, [2]	speed of sound, [1] [m/s]
x1 = 0.0465	860.4 ± 0.4	1.49082 ± 0.00068	1321 ± 2
x1 = 0.0962	858.3 ± 0.4	1.48858 ± 0.00068	1322 ± 2
x1 = 0.1961	854.1 ± 0.4	1.48405 ± 0.00068	1327 ± 2
x1 = 0.2944	850.3 ± 0.4	1.47983 ± 0.00068	1332 ± 2
x1 = 0.3975	846.6 ± 0.4	1.47562 ± 0.00068	1339 ± 2
x1 = 0.4959	843.4 ± 0.4	1.47185 ± 0.00069	1346 ± 2
x1 = 0.5935	840.4 ± 0.5	1.46828 ± 0.00069	1353 ± 2
x1 = 0.6929	837.6 ± 0.5	1.46489 ± 0.00069	1361 ± 2
x1 = 0.7954	835.2 ± 0.5	1.4616 ± 0.0007	1370 ± 2
x1 = 0.8899	833.2 ± 0.5	1.45885 ± 0.0007	1379 ± 2
x1 = 0.9497	832.1 ± 0.5	1.45726 ± 0.0007	1385 ± 2
x1 = 1	831.5 ± 0.5	1.45598 ± 0.0007	1391 ± 2

C1CCCCCCC1 [cyclooctane] + Cc1ccccc1
298.15 K
Conditions	mass density, [1] [kg/m3]	refractive index, [2]	speed of sound, [1] [m/s]
x1 = 0.0488	859.8 ± 0.4	1.49121 ± 0.00068	1307 ± 2
x1 = 0.1031	857 ± 0.4	1.48824 ± 0.00068	1309 ± 2
x1 = 0.2021	852.5 ± 0.4	1.48313 ± 0.00068	1315 ± 2
x1 = 0.2973	848.5 ± 0.4	1.47861 ± 0.00068	1321 ± 2
x1 = 0.4014	844.7 ± 0.4	1.47411 ± 0.00068	1329 ± 2
x1 = 0.5	841.5 ± 0.4	1.47026 ± 0.00069	1337 ± 2
x1 = 0.6005	838.7 ± 0.5	1.46667 ± 0.00069	1347 ± 2
x1 = 0.6976	836.4 ± 0.5	1.46358 ± 0.00069	1356 ± 2
x1 = 0.7981	834.4 ± 0.5	1.46073 ± 0.0007	1367 ± 2
x1 = 0.9007	832.8 ± 0.5	1.45814 ± 0.0007	1378 ± 2
x1 = 0.9494	832.1 ± 0.5	1.45705 ± 0.0007	1384 ± 2
x1 = 1	831.5 ± 0.5	1.45598 ± 0.0007	1391 ± 2

C1CCCCCCC1 [cyclooctane] + c1ccccc1
298.15 K
Conditions	mass density, [1] [kg/m3]	refractive index, [2]	speed of sound, [1] [m/s]
x1 = 0.0522	869.3 ± 0.4	1.49384 ± 0.00068	1300 ± 2
x1 = 0.102	865.4 ± 0.4	1.49019 ± 0.00068	1301 ± 2
x1 = 0.203	858.5 ± 0.4	1.48375 ± 0.00068	1306 ± 2
x1 = 0.3029	852.8 ± 0.4	1.47827 ± 0.00068	1313 ± 2
x1 = 0.4033	847.9 ± 0.4	1.47346 ± 0.00068	1322 ± 2
x1 = 0.5002	843.9 ± 0.4	1.46955 ± 0.00069	1331 ± 2
x1 = 0.5985	840.5 ± 0.5	1.46607 ± 0.00069	1342 ± 2
x1 = 0.7025	837.5 ± 0.5	1.46284 ± 0.00069	1354 ± 2
x1 = 0.7983	835.2 ± 0.5	1.4603 ± 0.0007	1365 ± 2
x1 = 0.8946	833.3 ± 0.5	1.45808 ± 0.0007	1377 ± 2
x1 = 0.9504	832.4 ± 0.5	1.45694 ± 0.0007	1384 ± 2
x1 = 1	831.5 ± 0.5	1.45598 ± 0.0007	1391 ± 2

CCc1ccccc1 [ethylbenzene] + C1CCCCC1
Conditions	mass density, [1] [kg/m3]	refractive index, [2]	speed of sound, [1] [m/s]
283.15 K, x2 = 0	875.7 ± 0.4	1.50129 ± 0.00063	1382 ± 2
283.15 K, x2 = 0.0476	871.4 ± 0.4	1.49802 ± 0.00062	1377 ± 2
283.15 K, x2 = 0.0982	866.9 ± 0.4	1.49455 ± 0.00062	1372 ± 2
283.15 K, x2 = 0.1983	857.9 ± 0.4	1.48762 ± 0.00063	1364 ± 2
283.15 K, x2 = 0.2982	848.9 ± 0.4	1.48066 ± 0.00063	1356 ± 2
283.15 K, x2 = 0.3973	840.1 ± 0.4	1.47373 ± 0.00063	1349 ± 2
283.15 K, x2 = 0.5016	830.7 ± 0.4	1.46641 ± 0.00063	1342 ± 2
283.15 K, x2 = 0.6008	821.8 ± 0.4	1.45942 ± 0.00064	1337 ± 2
283.15 K, x2 = 0.6995	813.2 ± 0.4	1.45257 ± 0.00063	1332 ± 2
283.15 K, x2 = 0.7998	804.4 ± 0.4	1.44558 ± 0.00064	1329 ± 2
283.15 K, x2 = 0.8967	796.3 ± 0.5	1.43898 ± 0.00064	1328 ± 2
283.15 K, x2 = 0.9451	792.3 ± 0.5	1.43569 ± 0.00064	1328 ± 2
298.15 K, x2 = 0	862.5 ± 0.4	1.49304 ± 0.00063	1319 ± 2
298.15 K, x2 = 0.0476	858.2 ± 0.4	1.48992 ± 0.00063	1314 ± 2
298.15 K, x2 = 0.0982	853.7 ± 0.4	1.48645 ± 0.00063	1309 ± 2
298.15 K, x2 = 0.1983	844.7 ± 0.4	1.47947 ± 0.00063	1300 ± 2
298.15 K, x2 = 0.2982	835.6 ± 0.4	1.47245 ± 0.00063	1291 ± 2
298.15 K, x2 = 0.3973	826.7 ± 0.4	1.46552 ± 0.00063	1283 ± 2
298.15 K, x2 = 0.5016	817.2 ± 0.4	1.45815 ± 0.00063	1275 ± 2
298.15 K, x2 = 0.6008	808.3 ± 0.4	1.45116 ± 0.00063	1268 ± 2
298.15 K, x2 = 0.6995	799.5 ± 0.5	1.44433 ± 0.00063	1263 ± 2
298.15 K, x2 = 0.7998	790.7 ± 0.5	1.43731 ± 0.00063	1258 ± 2
298.15 K, x2 = 0.8967	782.4 ± 0.5	1.43062 ± 0.00064	1255 ± 2
298.15 K, x2 = 0.9451	778.4 ± 0.5	1.42735 ± 0.00064	1254 ± 2

CCc1ccccc1 [ethylbenzene] + C1CCCCCCC1
298.15 K, x2 = 0
Conditions	mass density [kg/m3]	refractive index	speed of sound [m/s]
[1]	862.5 ± 0.4	–	1319 ± 2
[2]	–	1.49304 ± 0.00068	–

CCc1ccccc1 [ethylbenzene] + CC1CCCCC1
x2 = 0
Conditions	mass density, [1] [kg/m3]	refractive index, [2]	speed of sound, [1] [m/s]
283.15 K	875.7 ± 0.4	1.50129 ± 0.00063	1382 ± 2
298.15 K	862.5 ± 0.4	1.49304 ± 0.00063	1319 ± 2
